In patent publication US8471005B2 (Cephalon, Inc., priority 2008, dated 2013):
Read-outs that look alike come from different tables or passages of the source.

Assays:
ALK = molecular target: T1, ALK (Homo sapiens, UniProt Q9UM73); experiment: ALK Kinase Assay (ELISA/TRF, PLC-γ substrate); format: biochemical; conditions: read-out: ALK Potency
T1 construct: host or cells: baculovirus expression system
Summary of the method: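 First, plates are coated with substrate (phospholipase C-γ, 10 μg/mL, TBS). Next, 30 ng/ml ALK initiates phosphorylation for 15 min at 37° C. Then Eu-N1 PT66 antibody is added for detection, and a nonlinear dose-response fit of percent inhibition yields IC50.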

JAK2 = molecular target: T2, JAK2 (Homo sapiens, UniProt O60674); experiment: Recombinant Human JAK2 Kinase Assay (TRF); format: biochemical; conditions: read-out: JAK2 Potency
T2 construct: host or cells: baculovirus expression system
Summary of the method: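 Baculovirus-expressed JAK2 (15 ng/ml) phosphorylated a biotinylated 15-mer peptide captured on Neutravidin, in 20 mM HEPES pH 7.2, 0.2 μM ATP, 1 mM MnCl2, 0.1% BSA, 2.5% DMSO final, 20 min at room temperature. Phosphoproduct detected by time-resolved fluorescence with Eu-N1-labelled PY100 antibody.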

[1] = ALK kinase inhibition, 1 μM ATP
[2] = JAK2 kinase inhibition, 0.2 μM ATP

T1 sequence (Q9UM73 19-1620): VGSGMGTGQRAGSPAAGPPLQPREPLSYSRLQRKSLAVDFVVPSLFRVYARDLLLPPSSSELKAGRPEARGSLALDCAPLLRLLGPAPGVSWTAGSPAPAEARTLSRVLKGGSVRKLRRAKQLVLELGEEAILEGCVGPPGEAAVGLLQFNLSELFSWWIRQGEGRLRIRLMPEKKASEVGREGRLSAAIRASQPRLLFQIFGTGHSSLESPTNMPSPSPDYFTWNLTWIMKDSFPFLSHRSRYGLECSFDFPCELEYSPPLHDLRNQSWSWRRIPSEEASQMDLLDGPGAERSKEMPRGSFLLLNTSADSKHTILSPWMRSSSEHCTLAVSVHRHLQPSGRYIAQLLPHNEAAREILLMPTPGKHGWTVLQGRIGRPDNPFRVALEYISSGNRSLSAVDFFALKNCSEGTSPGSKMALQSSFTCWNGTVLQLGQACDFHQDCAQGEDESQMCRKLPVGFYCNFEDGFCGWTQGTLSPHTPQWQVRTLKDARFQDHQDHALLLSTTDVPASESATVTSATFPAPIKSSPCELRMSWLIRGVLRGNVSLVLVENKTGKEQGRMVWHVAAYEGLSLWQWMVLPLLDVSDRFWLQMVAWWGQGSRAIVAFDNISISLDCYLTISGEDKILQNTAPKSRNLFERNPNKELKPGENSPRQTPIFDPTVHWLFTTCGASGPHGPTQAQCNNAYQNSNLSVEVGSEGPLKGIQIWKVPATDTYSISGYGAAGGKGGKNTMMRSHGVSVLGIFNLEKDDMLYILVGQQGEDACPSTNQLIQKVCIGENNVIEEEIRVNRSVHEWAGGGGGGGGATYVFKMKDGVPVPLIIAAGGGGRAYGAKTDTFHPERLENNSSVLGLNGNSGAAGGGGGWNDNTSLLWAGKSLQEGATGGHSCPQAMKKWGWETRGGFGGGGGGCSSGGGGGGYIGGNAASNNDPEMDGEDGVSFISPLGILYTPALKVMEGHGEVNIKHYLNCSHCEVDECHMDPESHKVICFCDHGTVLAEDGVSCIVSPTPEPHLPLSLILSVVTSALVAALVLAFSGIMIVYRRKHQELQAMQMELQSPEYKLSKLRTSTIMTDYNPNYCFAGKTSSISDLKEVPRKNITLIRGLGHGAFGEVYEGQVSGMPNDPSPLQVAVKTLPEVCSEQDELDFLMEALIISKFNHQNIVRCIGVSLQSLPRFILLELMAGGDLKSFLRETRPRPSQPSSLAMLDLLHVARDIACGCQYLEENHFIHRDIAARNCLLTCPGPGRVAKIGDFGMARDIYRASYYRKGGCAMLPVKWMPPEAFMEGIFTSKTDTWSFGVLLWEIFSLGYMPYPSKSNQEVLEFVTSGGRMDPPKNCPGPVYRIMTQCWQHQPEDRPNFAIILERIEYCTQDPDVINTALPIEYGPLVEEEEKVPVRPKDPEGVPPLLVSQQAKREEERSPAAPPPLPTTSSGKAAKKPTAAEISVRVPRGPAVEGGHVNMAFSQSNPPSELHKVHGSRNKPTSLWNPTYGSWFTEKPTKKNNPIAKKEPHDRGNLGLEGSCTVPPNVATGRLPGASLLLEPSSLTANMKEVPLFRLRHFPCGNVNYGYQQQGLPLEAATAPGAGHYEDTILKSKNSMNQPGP
T2 sequence (O60674 whole entry): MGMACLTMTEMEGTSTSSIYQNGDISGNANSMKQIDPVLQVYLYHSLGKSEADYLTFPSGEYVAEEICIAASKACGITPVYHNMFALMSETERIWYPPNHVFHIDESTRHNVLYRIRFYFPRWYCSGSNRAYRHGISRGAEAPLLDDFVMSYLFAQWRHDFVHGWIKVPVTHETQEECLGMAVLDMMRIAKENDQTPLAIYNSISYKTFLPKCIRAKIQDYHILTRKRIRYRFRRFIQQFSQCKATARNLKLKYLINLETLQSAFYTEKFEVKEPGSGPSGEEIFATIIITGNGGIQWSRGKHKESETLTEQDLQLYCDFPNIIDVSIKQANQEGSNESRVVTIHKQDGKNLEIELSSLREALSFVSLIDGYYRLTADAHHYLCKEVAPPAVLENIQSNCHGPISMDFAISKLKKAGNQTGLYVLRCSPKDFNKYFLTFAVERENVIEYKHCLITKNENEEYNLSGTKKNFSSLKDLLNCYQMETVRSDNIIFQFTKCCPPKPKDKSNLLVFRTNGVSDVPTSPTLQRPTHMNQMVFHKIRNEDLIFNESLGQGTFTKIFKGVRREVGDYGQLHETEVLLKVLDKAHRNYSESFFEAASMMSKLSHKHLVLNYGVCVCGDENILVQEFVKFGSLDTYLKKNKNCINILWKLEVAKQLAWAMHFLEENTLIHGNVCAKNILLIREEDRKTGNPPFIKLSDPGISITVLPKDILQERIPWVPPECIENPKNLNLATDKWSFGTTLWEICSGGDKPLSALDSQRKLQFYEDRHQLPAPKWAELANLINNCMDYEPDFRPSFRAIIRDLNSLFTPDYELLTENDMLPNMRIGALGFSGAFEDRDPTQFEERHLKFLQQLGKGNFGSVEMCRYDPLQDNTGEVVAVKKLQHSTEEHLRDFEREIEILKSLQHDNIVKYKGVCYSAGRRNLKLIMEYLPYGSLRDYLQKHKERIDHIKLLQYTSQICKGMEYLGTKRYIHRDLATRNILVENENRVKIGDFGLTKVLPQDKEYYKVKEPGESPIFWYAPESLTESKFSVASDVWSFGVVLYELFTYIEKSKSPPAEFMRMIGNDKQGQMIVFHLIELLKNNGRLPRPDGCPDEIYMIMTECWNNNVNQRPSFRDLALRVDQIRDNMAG

## CCN(CC)C1CCN(c2ccc(Nc3ncc4ccc(-c5cnn(C)c5)n4n3)cc2)CC1 [Example 1207, [4-(4-Diethylamino-piperidin-1-yl)-phenyl]-[7-(1-methyl-1H-pyrazol-4-yl)-pyrrolo[2,1-f][1,2,4]triazin-2-yl]-amine]
ALK; [1]
  IC50: 100 to 1000 nM
JAK2; [2]
  IC50: < 100 nM

## CN1CCc2ccc(Nc3ncc4c(-c5ccc(F)cc5)ccn4n3)cc2C1 [Example 728, [5-(4-Fluoro-phenyl)-pyrrolo[2,1-f][1,2,4]triazin-2-yl]-(2-methyl-1,2,3,4-tetrahydro-isoquinolin-7-yl)-amine]
ALK; [1]
  IC50: > 10000 nM
JAK2; [2]
  IC50: 1000 to 10000 nM

## O=C(c1ccccc1)c1ccc2cnc(Nc3ccc(N4CCOCC4)cc3)nn12 [Example 72, [2-(4-Morpholin-4-yl-phenylamino)-pyrrolo[2,1-f][1,2,4]triazin-7-yl]-phenyl-methanone]
ALK; ALK Kinase Inhibition
  IC50: 1000 to 10000 nM
JAK2; JAK2 Kinase Inhibition
  IC50: < 100 nM

## CN1CCN(c2ccc(Nc3ncc4ccc(-c5cnc6ccccc6c5)n4n3)cc2)CC1 [Example 1037, [4-(4-Methyl-piperazin-1-yl)-phenyl]-(7-quinolin-3-yl-pyrrolo[2,1-f][1,2,4]triazin-2-yl)-amine]
ALK; [1]
  IC50: < 100 nM
JAK2; [2]
  IC50: < 100 nM

## COc1ccc(Nc2ncc3ccc(-c4cccc(S(=O)(=O)NC(C)(C)C)c4)n3n2)cc1N1CCCC1=O [Example 1377, N-tert-Butyl-3-{2-[4-methoxy-3-(2-oxo-pyrrolidin-1-yl)-phenylamino]-pyrrolo[2,1-f][1,2,4]triazin-7-yl}-benzenesulfonamide]
ALK; ALK Kinase Inhibition
  IC50: 100 to 1000 nM
JAK2; JAK2 Kinase Inhibition
  IC50: < 100 nM

## CN1CCN(c2ccc(Nc3ncc4ccc(-c5ccccc5OCC(=O)N(C)C)n4n3)cc2F)CC1 [Example 1404, 2-(2-{2-[3-Fluoro-4-(4-methyl-piperazin-1-yl)-phenylamino]-pyrrolo[2,1-f][1,2,4]triazin-7-yl}-phenoxy)-N,N-dimethyl-acetamide]
ALK; ALK Kinase Inhibition
  IC50: 100 to 1000 nM
JAK2; JAK2 Kinase Inhibition
  IC50: < 100 nM

## COc1cc(C2CCCN(C)C2)ccc1Nc1ncc2ccc(-c3ccccc3N(C)S(C)(=O)=O)n2n1 (centres unmarked) [Example 806, N-(2-{2-[2-Methoxy-4-(1-methyl-piperidin-3-yl)-phenylamino]-pyrrolo[2,1-f][1,2,4]triazin-7-yl}-phenyl)-N-methyl-methanesulfonamide]
ALK; [1]
  IC50: < 100 nM
JAK2; [2]
  IC50: 100 to 1000 nM

## CC(C)(C)OC(=O)N1CCC=C(c2ccc3cnc(Nc4ccc(C5CCN(CC(N)=O)CC5)cc4)nn23)C1 [Example 675, 5-{2-[4-(1-Carbamoylmethyl-piperidin-4-yl)-phenylamino]-pyrrolo[2,1-f][1,2,4]triazin-7-yl}-3,6-dihydro-2H-pyridine-1-carboxylic acid tert-butyl ester]
ALK; [1]
  IC50: 1000 to 10000 nM
JAK2; [2]
  IC50: < 100 nM

## COc1cc(C2CCN(CC(O)CF)CC2)ccc1Nc1ncc2ccc(-c3ccccc3N(C)S(C)(=O)=O)n2n1 (racemic) [Example 826, (±)-N-[2-(2-{4-[1-(3-Fluoro-2-hydroxy-propyl)-piperidin-4-yl]-2-methoxy-phenylamino}-pyrrolo[2,1-f][1,2,4]triazin-7-yl)-phenyl]-N-methyl-methanesulfonamide]
ALK; [1]
  IC50: < 100 nM
JAK2; [2]
  IC50: 100 to 1000 nM

## Cc1cc(N2CCN(C)CC2)ccc1Nc1ncc2ccc(-c3ccc(S(C)(=O)=O)cc3)n2n1 [Example 67, [7-(4-Methanesulfonyl-phenyl)-pyrrolo[2,1-f][1,2,4]triazin-2-yl]-[2-methyl-4-(4-methyl-piperazin-1-yl)-phenyl]-amine]
ALK; ALK Kinase Inhibition
  IC50: 100 to 1000 nM
JAK2; JAK2 Kinase Inhibition
  IC50: < 100 nM

## CC(C)(C)NS(=O)(=O)c1cccc(-c2ccc3cnc(Nc4ccc5nc(C(F)(F)F)[nH]c5c4)nn23)c1 [Example 1297, N-tert-Butyl-3-[2-(2-trifluoromethyl-3H-benzimidazol-5-ylamino)-pyrrolo[2,1-f][1,2,4]triazin-7-yl]-benzenesulfonamide]
ALK; [1]
  IC50: > 10000 nM
JAK2; [2]
  IC50: < 100 nM

## CN1CCN(c2ccc(Nc3ncc4ccc(NCc5cccc([N+](=O)[O-])c5)n4n3)cc2)CC1 [Example 1163, N(2)-[4-(4-Methyl-piperazin-1-yl)-phenyl]-N(7)-(3-nitro-benzyl)-pyrrolo[2,1-f][1,2,4]triazine-2,7-diamine]
ALK; [1]
  IC50: 100 to 1000 nM
JAK2; [2]
  IC50: < 100 nM

## COc1cc(N2CCCN(C)CC2)ccc1Nc1ncc2ccc(-c3ccccc3N(C)S(C)(=O)=O)n2n1 [Example 771, N-(2-{2-[2-Methoxy-4-(4-methyl-[1,4]diazepan-1-yl)-phenylamino]-pyrrolo[2,1-f][1,2,4]triazin-7-yl}-phenyl)-N-methyl-methanesulfonamide]
ALK; [1]
  IC50: < 100 nM
JAK2; [2]
  IC50: 100 to 1000 nM

## O=S(=O)(c1ccccc1)c1ccc2cnc(Nc3ccc(N4CCOCC4)cc3)nn12 [Example 111, (7-Benzenesulfonyl-pyrrolo[2,1-f][1,2,4]triazin-2-yl)-(4-morpholin-4-yl-phenyl)-amine]
ALK; ALK Kinase Inhibition
  IC50: 100 to 1000 nM
JAK2; JAK2 Kinase Inhibition
  IC50: < 100 nM

## COc1cc(N2CCC[C@H](CN3CCN(C)CC3)C2)ccc1Nc1ncc2ccc(-c3ccccc3N(C)S(C)(=O)=O)n2n1 [Example 465, N-[2-(2-{2-Methoxy-4-[(R)-3-(4-methyl-piperazin-1-ylmethyl)-piperidin-1-yl]-phenylamino}-pyrrolo[2,1-f][1,2,4]triazin-7-yl)-phenyl]-N-methyl-methanesulfonamide]
ALK; ALK Kinase Inhibition
  IC50: < 100 nM
JAK2; JAK2 Kinase Inhibition
  IC50: 100 to 1000 nM

## Fc1cc(Nc2ncc3ccc(-c4cccc(Cl)c4)n3n2)ccc1N1CCOCC1 [Example 187, [7-(3-Chloro-phenyl)-pyrrolo[2,1-f][1,2,4]triazin-2-yl]-(3-fluoro-4-morpholin-4-yl-phenyl)-amine]
ALK; ALK Kinase Inhibition
  IC50: > 10000 nM
JAK2; JAK2 Kinase Inhibition
  IC50: < 100 nM

## COc1cc(N2CCC3(CC2)OCCO3)ccc1Nc1ncc2ccc(-c3ccccc3OC)n2n1 [Example 482, [4-(1,4-Dioxa-8-aza-spiro[4.5]dec-8-yl)-2-methoxy-phenyl]-[7-(2-methoxy-phenyl)-pyrrolo[2,1-f][1,2,4]triazin-2-yl]-amine]
ALK; [1]
  IC50: 100 to 1000 nM
JAK2; [2]
  IC50: 100 to 1000 nM

## COc1cc(C2CCN(C(=O)C3CCN3)CC2)ccc1Nc1ncc2ccc(-c3ccccc3N(C)S(C)(=O)=O)n2n1 (racemic) [Example 863, (±)-N-[2-(2-{4-[1-(Azetidine-2-carbonyl)-piperidin-4-yl]-2-methoxy-phenylamino}-pyrrolo[2,1-f][1,2,4]triazin-7-yl)-phenyl]-N-methyl-methanesulfonamide]
ALK; [1]
  IC50: < 100 nM
JAK2; [2]
  IC50: 1000 to 10000 nM

## CC(C)(C)NS(=O)(=O)c1cccc(-c2ccc3cnc(Nc4ccc5nc(CN6CCOCC6)[nH]c5c4)nn23)c1 [Example 1514, N-tert-Butyl-3-[2-(2-morpholin-4-ylmethyl-3H-benzimidazol-5-ylamino)-pyrrolo[2,1-f][1,2,4]triazin-7-yl]-benzenesulfonamide]
ALK; ALK Kinase Inhibition
  IC50: 100 to 1000 nM
JAK2; JAK2 Kinase Inhibition
  IC50: < 100 nM

## CN(C)CCNC(=O)c1ccc(-c2ccc3cnc(Nc4ccc(N5CCOCC5)cc4)nn23)cc1 [Example 52, N-(2-Dimethylamino-ethyl)-4-[2-(4-morpholin-4-yl-phenylamino)-pyrrolo[2,1-f][1,2,4]triazin-7-yl]-benzamide]
ALK; ALK Kinase Inhibition
  IC50: 100 to 1000 nM
JAK2; JAK2 Kinase Inhibition
  IC50: < 100 nM

## COCc1cccc(-c2ccc3cnc(Nc4ccc(N5CCN(C)CC5)cc4)nn23)c1 [Example 1503, [7-(3-Methoxymethyl-phenyl)-pyrrolo[2,1-f][1,2,4]triazin-2-yl]-[4-(4-methyl-piperazin-1-yl)-phenyl]-amine]
ALK; ALK Kinase Inhibition
  IC50: 100 to 1000 nM
JAK2; JAK2 Kinase Inhibition
  IC50: < 100 nM

## COc1cc(C2CCNCC2)ccc1Nc1ncc2ccc(-c3ccc(C)cc3N(C)S(C)(=O)=O)n2n1 [Example 1281, N-{2-[2-(2-Methoxy-4-piperidin-4-yl-phenylamino)-pyrrolo[2,1-f][1,2,4]triazin-7-yl]-5-methyl-phenyl}-N-methyl-methanesulfonamide]
ALK; [1]
  IC50: < 100 nM
JAK2; [2]
  IC50: 100 to 1000 nM

## COc1cc([C@H]2CC[C@H](N3CCOCC3)CC2)ccc1Nc1ncc2ccc(-c3ccccc3N(C)S(C)(=O)=O)n2n1 [Example 1248, N-{2-[2-({2-methoxy-4-[trans-4-(morpholin-4-yl)cyclohexyl]phenyl}amino)pyrrolo[2,1-f][1,2,4]triazin-7-yl]phenyl}-N-methylmethanesulfonamide]
ALK; [1]
  IC50: < 100 nM
JAK2; [2]
  IC50: 100 to 1000 nM

## COc1ccc(-c2ccc3cnc(Nc4cccc(C5C(=O)N(C)CCN5C)c4)nn23)cn1 (centres unmarked) [Example 1081, 3-{3-[7-(6-Methoxy-pyridin-3-yl)-pyrrolo[2,1-f][1,2,4]triazin-2-ylamino]-phenyl}-1,4-dimethyl-piperazin-2-one]
ALK; [1]
  IC50: > 10000 nM
JAK2; [2]
  IC50: < 100 nM

## COc1ccccc1-c1ccc2cnc(Nc3ccc(N4CCC(N5CCOCC5)CC4)cc3)nn12 [Example 334, [7-(2-Methoxy-phenyl)-pyrrolo[2,1-f][1,2,4]triazin-2-yl]-[4-(4-morpholin-4-yl-piperidin-1-yl)-phenyl]-amine]
ALK; ALK Kinase Inhibition
  IC50: < 100 nM
JAK2; JAK2 Kinase Inhibition
  IC50: < 100 nM

## COc1ccccc1-c1ccc2cnc(Nc3ccc4nc(CO)[nH]c4c3)nn12 [Example 1067, {6-[7-(2-Methoxy-phenyl)-pyrrolo[2,1-f][1,2,4]triazin-2-ylamino]-1H-benzoimidazol-2-yl}-methanol]
ALK; [1]
  IC50: 100 to 1000 nM
JAK2; [2]
  IC50: < 100 nM

## COc1ccccc1-c1ccc2cnc(Nc3ccc(C4CCNC4)cc3)nn12 (centres unmarked) [Example 1012, [7-(2-Methoxy-phenyl)-pyrrolo[2,1-f][1,2,4]triazin-2-yl]-(4-pyrrolidin-3-yl-phenyl)-amine]
ALK; [1]
  IC50: < 100 nM
JAK2; [2]
  IC50: < 100 nM

## CN1CCN(c2ccc(Nc3ncc4ccc(-c5cccc(S(=O)(=O)N6CCCC6)c5)n4n3)cc2)CC1 [Example 367, [4-(4-Methyl-piperazin-1-yl)-phenyl]-{7-[3-(pyrrolidine-1-sulfonyl)-phenyl]-pyrrolo[2,1-f][1,2,4]triazin-2-yl}-amine]
ALK; ALK Kinase Inhibition
  IC50: 100 to 1000 nM
JAK2; JAK2 Kinase Inhibition
  IC50: < 100 nM
